Patent US20250382337A1 (UNIVERSITY OF MIAMI, priority 2022, published 2025)

Test system: SCI pain
Conditions: in vivo

NCC1(CC(=O)O)CCCCC1 [gabapentin]
place preference in GFP (control AAV) SCI animals: induced place preference
